Data set [1] can be described thus: Cytotoxicity against human MT4 cells after 5 days by MTT assay. It is filed as cell-based. (In general: Tetrazolium assays rely on reduction of a dye to a coloured formazan, in cell work by metabolically active cells.)
Data set [2] deals with Human immunodeficiency virus 1. Kind of data set: Antiviral activity against HIV1 NL4-3 infected in human MT4 cells assessed as inhibition of virus-induced cytopathic effect after 5 days by MTT assay. The settings on record: Human immunodeficiency virus 1, NL4-3, MT4, 120 h. Type of data set: functional, organism-based. For orientation: Cytopathic effects are the visible damage that an infection or toxin causes in cultured cells.

The subject of data set [3] is Human immunodeficiency virus 1. Kind of data set: Antiviral activity against HIV1 NL4-3 with gp120 mutation […] infected in human MT4 cells assessed as inhibition of virus-induced cytopathic effect after 5 days by MTT assay. It is filed as functional, organism-based. The settings on record: Human immunodeficiency virus 1, NL4-3, MT4, 120 h.
For data set [4], the system named is Human immunodeficiency virus 1. Kind of data set: Antiviral activity against HIV1 NL4-3 infected in human MT4 cells assessed as capsid p24antigen production at 100 times EC50 treated before infection by ELISA. It is filed as functional, organism-based. In general terms: An ELISA detects its analyte on a solid surface through an enzyme-linked reagent.
Data set [5] relates to Human immunodeficiency virus 1. Kind of data set: Antiviral activity against HIV1 NL4-3 infected in human MT4 cells assessed as capsid p24antigen production at 100 times EC50 treated after infection by ELISA. Type of data set: functional, organism-based.

SMILES strings stand for the structures. Calls of active or inactive are those of the source. No cut-off for these calls is given here. Some results are limits rather than exact numbers.

On to `COc1nc(N/N=C/c2ccc(-c3ccc(Cl)c([N+](=O)[O-])c3)o2)nc(N2CCOCC2)n1`, for which the half-maximal cytotoxic concentration (CC50) at 120 h in data set [1] is over 54 µM. The EC50 in data set [2] is over 54 µM.
`COc1ccc(/C=N/c2nc3ccccc3n2Cc2ccc(Cl)cc2)cc1OC` returned a CC50 at 120 h in data set [1] of over 62 µM. For the same compound, the EC50 in data set [2] was over 62 µM.
On to `CCOC(=O)/C(=C\c1ccc(-c2cccc([N+](=O)[O-])c2)o1)C(=O)c1ccccc1`, for which the 50% cytotoxic concentration (CC50) at 120 h in data set [1] was over 64 µM. The EC50 in data set [3] was over 64 µM; in data set [2] it was 9 µM. Further, the outcome in data set [4] was Active. The outcome in data set [5] was inactive.
In turn, `C=CCn1c(SCc2ccc(C(=O)NCCO)cc2)nc2ccccc2c1=O` had a CC50 at 120 h in data set [1] of over 63 µM. Also, the 50% effective concentration (EC50) in data set [2] was over 63 µM.
In the case of `C[C@@H]1CN(C(=O)c2ccccc2)CCN1C(=O)C(=O)c1cc2ccccc2[nH]1`, the half-maximal cytotoxic concentration (CC50) at 120 h in data set [1] is over 2.66 µM. In addition, the concentration for a half-maximal effect (EC50) is over 2.66 µM in data set [3] and 0.024 µM in data set [2].
In data set [1], `CCOC(=O)[C@H](Cc1ccc(/N=C/c2cc(Br)ccc2O)cc1)N1C(=O)c2ccccc2C1=O` gave a 50% cytotoxic concentration (CC50) at 120 h of over 48 µM. Also, the 50% effective concentration (EC50) in data set [3] is over 48 µM; in data set [2] it was 22 µM.

What is called CC50 is the concentration giving 50% cytotoxicity. As usually defined, the EC50 is the concentration at which the effect is half-maximal.

For the origin of these results see ChEMBL document CHEMBL1154175, “A dynamic target-based pharmacophoric model mapping the CD4 binding site on HIV-1 gp120 to identify new inhibitors of gp120-CD4 protein-protein interactions” (Bioorg Med Chem Lett, 2009).
